Reference: US7198931B2, “Phosphorylated glyoxalase I and its use” (Vlaams Interuniversitair Instituut voor Biotechnologie VZW, priority 2001, dated 2007)
Like-named read-outs stand apart in the source and are kept apart here.

Legend:
Assay type in all cases: cell-based
[1] = system: specific MG-derived AGE; experiment: Detection of the specific MG-derived AGE by Western blot with mAb6B, densitometry of the ECL signal
Description: L929 cells were seeded 48 hours prior to the experiment. TNF incubations (1000 U/ml) were done in the presence of CHX to synchronize cell death. After TNF incubations (1.5 hours or 2.5 hours), the cells were rinsed three times with ice-cold PBS buffer and cell lysates were prepared in a CHAPS-containing cytosol extraction buffer (Guy et al., 1992). […] To use the antibody sparingly, SDS-PAGE gels were only run over a distance of 5 cm.

[2] = system: L929 cells
Description: Murine TNF (mTNF) was obtained from Roche Diagnostics and was used at 1000 IU/ml unless indicated otherwise. Propidium iodide (PI) and cycloheximide (CHX) (all from Sigma) were used at concentrations of 30 μM and 50 μg/ml, respectively.
Cell death in L929 was induced by addition of TNF to the cell suspension. Cell death was measured by quantifying PI-positive cells by FACS (FACSCalibur, Becton Dickinson, San Jose, Calif.). The PI dye was excited with an argon-ion laser at 488 nm; PI fluorescence was measured above 590 nm using a long-pass filter. Routinely, 3,000 cells were analyzed. Cell death is expressed as the percentage of PI-positive cells in the total cell population.

[3] = target: T1, glyoxalase I (Mus musculus, UniProt Q9CPU0); experiment: TNF-induced phosphorylation of glyoxalase I (32P labeling, 2-D gels, Western blot with anti-human glyoxalase I antibody)
T1 construct: TNF-induced phosphorylation of endogeneous glyoxalase I in L929 cells; endogenous in cells; host or cells: L929 cells
T1 sequence (Q9CPU0 2-184 limits assumed): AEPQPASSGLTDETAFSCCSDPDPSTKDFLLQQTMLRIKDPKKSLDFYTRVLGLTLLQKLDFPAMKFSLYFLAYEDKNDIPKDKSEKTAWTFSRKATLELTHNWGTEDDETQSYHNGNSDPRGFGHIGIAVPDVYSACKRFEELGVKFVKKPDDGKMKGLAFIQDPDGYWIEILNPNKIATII
Description: L929 cells were plated 48 hours prior to the experiment. ^32P labeling was carried out as described in (Guy et al., 1992). TNF treatments (1000 IU/ml, 1.5 hours) were done in the presence of cycloheximide (CHX), to synchronize cell death. To simplify the 2-D phosphoprotein pattern and subsequent computer-assisted analysis, we prepared two subcellular protein fractions. The cytosolic protein fraction, containing soluble cytoplasmic molecules and molecules derived from single-membrane organelles, was obtained as the supernatant from digitonin (0.03%)-permeabilized cells. After rinsing once with excess PBS buffer, the remaining cell fraction was lysed in a CHAPS (2%)-containing buffer as described in (Guy et al., 1992). This lysate was then centrifuged (20,000 g) and the supernatant was used as the organelle fraction; it is enriched for mitochondrial and cytoskeleton-derived proteins.
Isoelectric focusing. […] Protein samples were precipitated with ethanol and redissolved in lysis buffer.
SDS-PAGE. The second dimension (SDS-PAGE) was run on large vertical gels (12.5% acrylamide, Biorad).
Proteins were separated by SDS-PAGE (12.5%) and transferred to a PVDF membrane (Hybond-P, Amersham Pharmacia Biotech). […]

[4] = L929 cells pretreated (BBGD 20 μM; H89 5 μM), after 1.5 hours of TNF treatment
[5] = L929 cells pretreated (BBGD 20 μM; H89 5 μM), after 2.5 hours of TNF treatment

COc1ccc(O)c(C(C)(C)C)c1 [BHA, butylated hydroxyanisole]
reduction of formation of the specific MG-derived AGE ([1]; TNF 1000 U/ml + CHX, 2.5 hours, BHA 100 μM given 0.5 hour after TNF): 65%

O=CC[C@@H](O)[C@H](O)[C@H](O)CO [2-deoxyglucose]
inhibition of TNF-induced cell death ([2]; 2-deoxyglucose 2:1 ratio to glucose): 65% | inhibition of formation of the specific MG-derived AGE ([1]; TNF 1000 U/ml + CHX, 2.5 hours, 2-deoxyglucose 2:1 ratio to glucose, given with TNF): 65%

O=S(=O)(NCCNC/C=C/c1ccc(Br)cc1)c1cccc2cnccc12 [H89]
effect on induction of the more acidic (phosphorylated) isoform of glyoxalase I by TNF ([3]; L929 cells, pretreatment, 5 μM): completely abolished | effect on TNF-induced cell death ([2]; pretreatment 2 hours, 1 μM): inhibitory effect | inhibition of TNF-induced cell death ([2]; pretreatment 2 hours, 5 μM): > 50% | reduction of formation of the specific MG-derived AGE [1, 4]: 70% | reduction of formation of the specific MG-derived AGE [1, 5]: 20%

NC(CCC(=O)NC(CSCc1ccc(Br)cc1)C(=O)NCC(=O)OC1CCCC1)C(=O)OC1CCCC1 (stereo not shown) [BBGD, s-p-bromobenzylglutathione cyclopentyl diester]
effect on TNF-induced phosphorylation of GLO1 ([3]; cells preincubated with the inhibitor for 1 hour 10 minutes, 2-D gels pH 3–10): inhibits the TNF-induced phosphorylation of GLO1 | increase in TNF-induced cell death (synergistic effect) ([2]; inhibitor and TNF added at the same time, 20 μM): 50% | inhibition of TNF-induced cell death ([2]; preincubation 1 hour 10 minutes with inhibitor, 20 μM): 60% | reduction of formation of the specific MG-derived AGE [1, 4]: 50% | reduction of formation of the specific MG-derived AGE [1, 5]: 10%

N=C(N)NN [aminoguanidine]
inhibition of TNF-induced cell death ([2]; 16 hours TNF 20 U/ml, 400 μM): 15% | maximum inhibition of TNF-induced cell death ([2]; 16 hours TNF 20 U/ml, 600 or 800 μM): 25%

CC(=O)C=O [MG, methylglyoxal]
effect of exogeneously added MG on TNF-induced cell death ([2]; 5.5 hours incubation with TNF and methylglyoxal, concentration-dependent): strongly synergistic
